Measured values as given in US20220281930A1, “COMPOSITIONS AND METHODS FOR THE TREATMENT OF PATHOLOGICAL PAIN AND ITCH” (DUKE UNIVERSITY, priority 2019, published 2022).

Tests used:
[1] = tested on: intracellular chloride ([Cl—]i); assay: Secondary screen: Clomeleon chloride imaging in primary mouse neurons; assay type: cell-based; set-up: chloride reduction (%): concentration or dose not given beside the values
Experimental: The primary screen encompassed three levels of LUC measurements. The first level of screening yielded a total of 137 compounds with cut-off RLU>125% LUC activity. These 137 compounds were subject to second round of screening, which was carried out in duplicate independent assays to yield the top 103 compounds sorted for highest RLU. The 103 compounds were then subjected to a third round of screening carried out in duplicate independent assays to yield the top 40 compounds which were again ranked. The best 22 of these 40 compounds (ranked for highest RLU activity) were subjected to secondary screening: Cultured neurons were treated with the 22 compounds; RT-qPCR and Clomeleon imaging methodologies (Yeo et al., 2009, J Neurosci 29:14652-14662) were used to determine effects of compounds on KCC2 mRNA expression and [Cl—]i, respectively. Each compound was ranked based on composite scores from primary and secondary screening.
Chloride imaging of primary cultured cortical neurons was conducted as previously described (Kuner and Augustine, 2000, Neuron 27:447-459; Liedtke et al., 2013, Small 9:1066-1075; Yeo et al., 2009, J Neurosci 29:14652-14662). A Clomeleon expression plasmid was transfected into primary cortical neurons by electroporation (Amaxa Nucleofector Device). Transfected neurons were verified by yellow fluorescent protein (YFP) fluorescence, and ratiometric images (excitation at λ=434 nm, dual emission at λ=485 and 535 nm; for resting chloride, six stable frames at […] were captured, which were averaged) were acquired using RATIOTOOL program. Calibration of Clomeleon signals (535 nm/485 nm emission ratio) was performed by using tributyltin-nigericin to establish a standard curve, which was then normalized for measured intraneuronal pH to take into account the pH sensitivity of Clomeleon.
To identify KCC2 gene expression enhancing compounds, cultured primary cortical neurons were cultured from KCC2-luciferase(LUC)-knockin (KCC2-LUCki) mice (Liedtke et al., 2013, Small 9:1066-1075; Yeo et al., 2013, Proc Natl Acad Sci USA 110:4315-4320) and used LUC metrics as readout for activity of the proximal KCC2 promoter (2.5 kB (Yeo et al., 2009, J Neurosci 29:14652-14662)), which drives LUC in this mouse transgenic line. A Z′ factor of 0.94 was obtained. This strategy will not select for long-range enhancers of KCC2 gene expression that act outside the 2.5 kB core KCC2 promoter. 1057 compounds, contained in two NCI libraries (FIG. 1), related to inhibition of growth of malignantly transformed cells were screened. Iterative screening followed by measurements of KCC2 mRNA (RT-qPCR) and intracellular chloride ([Cl—]i), using clomeleon chloride indicator protein (Kuner and Augustine, 2000, Neuron 27:447-459; Yeo et al., 2009, J Neurosci 29:14652-14662), led to decreasing numbers of confirmed and re-confirmed hits, and 4 “winner” compounds were selected (FIG. 1 and Table 3).

[2] = tested on: CDKs; assay: DARTS assay, CDKs; assay type: binding, rat; settings: 20 μM KP
Experimental: Cultured primary rat cortical neurons were treated with either vehicle DMSO (0.1%) or 20 μM KP for 30 h. Cells were lysed in ice-cold lysis buffer (Tris.Cl pH8 50 mM, NaCl 150 mM, NP40 0.5%, N-dodecyl-b-D-maltoside 0.5%, Phosphatase Inhibitor (Pierce #88667) and Protease Inhibitor (Roche #11836153001)). Protein concentrations were determined by Bio-Rad DC Protein Assay kit using bovine albumin as standard. All steps were performed on ice. Samples were warmed to room temperature and digested with pronase (final concentration 1:500) for 30 min at 30° C. Digestion was halted using 0.5M EDTA. Only proteins not bound to KP were digested. The protein mixture was dialyzed using dialysis cassettes (Thermo Fisher 66203, 2K MWCO) and analyzed by LC-MS/MS method to identify proteins that are bound to KP, the latter step carried out in the Duke Proteomics Core Laboratory.
A drug affinity responsive target stability (DARTS) assay (Lomenick, et al., 2009, Proc Natl Acad Sci USA 106:21984-21989) was used to study direct binding of KP to GSK3ß (FIG. 8A) in primary cortical neurons. The findings were consistent with previous reports in cell lines (Knockaert, et al., 2002, The Journal of biological chemistry 277:25493-25501) yet novel in primary neurons. […]

SMILES: O=C1Cc2c([nH]c3ccc(Br)cc23)-c2ccccc2N1 [kenpaullone, 9-bromo-7,12-dihydro-indolo [3,2-d] [1]benzazepin-6(5H)-one]
- Clomeleon Score (duplicates) ([1]; Natural Compounds, rank score): 2
- chloride reduction (%) ([1]; from the [Cl—]i pair of the same line): 33.8%
- chloride [Cl—]i mM ([1]; value after compound, control => treated): 68 => 23 mM
- binding of KP to CDKs [2]: not identified
